Some test systems named below: COLO 205 colon; OVCAR-3 ovarian; OVCAR-5 ovarian; TK-10 renal; UACC-62 melanoma; NCI/ADR-RES ovarian; SNB-75 CNS; HCC-2998 colon; SK-MEL-28 melanoma; BT-549 breast.
Common to all, as to test: NCI anticancer screen, dose series, 48 h

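Values below derive from 48-hour exposures of cells grown in 96-well plates, with endpoints linearly interpolated between the two concentrations bracketing the appropriate inhibition level. TGI: total growth inhibition.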

We go through 13 compounds from PubChem BioAssay (NCI).

In the case of `CCCCCCCCC[n+]1cccc(C2C(C(=O)OCC)=C(C)NC(C)=C2C(=O)OCC)c1`, the TGI in the experiment with COLO 205 colon is 8.06 µM; in the experiment with OVCAR-3 ovarian, 11.8 µM; in the experiment on OVCAR-5 ovarian it was 24.6 µM; in the experiment with TK-10 renal, 25.8 µM; in the experiment on UACC-62 melanoma it was 3.54 µM; with NCI/ADR-RES ovarian, more than 100 µM. In addition, the TGI came out at 11.6 µM in the experiment with SNB-75 CNS, 21.1 µM in the experiment on HCC-2998 colon, 7.28 µM in the experiment on SK-MEL-28 melanoma and 4.51 µM in the experiment on BT-549 breast.

Consider `COC(=O)/C=C\C(C#N)(C#N)N=Cc1ccsc1`, for which the TGI is 2.73 µM with COLO 205 colon; 5.37 µM in the experiment on OVCAR-3 ovarian; 16.2 µM in the experiment on OVCAR-5 ovarian; 5.96 µM in the experiment with TK-10 renal; 9.69 µM in the experiment with UACC-62 melanoma; more than 19.7 µM in the experiment on NCI/ADR-RES ovarian. The TGI in the experiment on SNB-75 CNS was found to be 29.5 µM; in the experiment with HCC-2998 colon, 29.6 µM; with SK-MEL-28 melanoma, 7.43 µM; with BT-549 breast, 5.7 µM.

In the case of `O=S(=O)(O)c1ccc(Nc2ccnc3cc(Cl)ccc23)cc1`, the TGI in the experiment with COLO 205 colon, in the experiment on OVCAR-3 ovarian, in the experiment with OVCAR-5 ovarian, in the experiment with TK-10 renal, with UACC-62 melanoma and in the experiment on NCI/ADR-RES ovarian was more than 100 µM in each case. The TGI in the experiment with SNB-75 CNS, in the experiment on HCC-2998 colon, with SK-MEL-28 melanoma and in the experiment with BT-549 breast was more than 100 µM throughout.

As to `CSc1ccccc1P(CCP(c1ccccc1SC)c1ccccc1SC)c1ccccc1SC`, the TGI in the experiment on COLO 205 colon was more than 53 µM; with OVCAR-3 ovarian, more than 33.5 µM; in the experiment on OVCAR-5 ovarian it was more than 100 µM; in the experiment on TK-10 renal, more than 100 µM; with UACC-62 melanoma it was more than 100 µM; in the experiment with NCI/ADR-RES ovarian, more than 100 µM. Further, the TGI with SNB-75 CNS was more than 55.6 µM; in the experiment with HCC-2998 colon it was more than 100 µM; with SK-MEL-28 melanoma, more than 100 µM; in the experiment with BT-549 breast it was more than 100 µM.

As to `C=C1C(=O)O[C@H]2C3C(=C(C)CC[C@@H]12)C(=O)[C@@H]1OC31C` (stereo not given in full), the TGI with COLO 205 colon turned out to be 2.66 µM; in the experiment with OVCAR-3 ovarian, 4.38 µM; in the experiment on OVCAR-5 ovarian, 23.3 µM; in the experiment on TK-10 renal, 4.4 µM; in the experiment with UACC-62 melanoma, 5.69 µM; in the experiment with NCI/ADR-RES ovarian it was 10.7 µM. In addition, the TGI in the experiment on SNB-75 CNS was determined as 6.57 µM; in the experiment with HCC-2998 colon it was 29.7 µM; in the experiment on SK-MEL-28 melanoma it was 5.52 µM; with BT-549 breast, 4.6 µM.

As to `c1ccc2c(c1)c1c3n2-c2cc(on2)C3CCC1` (stereo not given), the TGI with COLO 205 colon, in the experiment on OVCAR-3 ovarian, in the experiment with OVCAR-5 ovarian, with TK-10 renal, in the experiment on UACC-62 melanoma and with NCI/ADR-RES ovarian was more than 100 µM in each case. Besides, the TGI with SNB-75 CNS, with HCC-2998 colon, in the experiment with SK-MEL-28 melanoma and in the experiment on BT-549 breast was more than 100 µM each time.

As to `CCOC(=O)C1=C(C)N(c2ccc(C)cc2)C2(O)C=CC(=O)C3=C(O)c4ccccc4C(=O)C312` (stereo not given), the TGI with COLO 205 colon, in the experiment with OVCAR-3 ovarian, in the experiment on OVCAR-5 ovarian, in the experiment with TK-10 renal, with UACC-62 melanoma and with NCI/ADR-RES ovarian was more than 100 µM throughout. Besides, the TGI turned out to be 68.6 µM with SNB-75 CNS, 59.4 µM in the experiment with HCC-2998 colon, 60.2 µM in the experiment with SK-MEL-28 melanoma and 49.3 µM with BT-549 breast.

`Cn1c(=O)c2[nH]c(CCC(=O)O)nc2n(C)c1=O`: the TGI in the experiment with COLO 205 colon, with OVCAR-3 ovarian, in the experiment on OVCAR-5 ovarian, in the experiment on TK-10 renal, in the experiment on UACC-62 melanoma and in the experiment with NCI/ADR-RES ovarian was more than 100 µM throughout. Besides, the TGI with SNB-75 CNS, in the experiment with HCC-2998 colon, in the experiment with SK-MEL-28 melanoma and in the experiment with BT-549 breast was more than 100 µM in each case.

Consider `CCOC(=O)c1cc(-c2ccn(C(C)=O)c2)c(-c2cc(C)co2)[nH]1`, for which the TGI in the experiment with COLO 205 colon, in the experiment with OVCAR-3 ovarian, with OVCAR-5 ovarian, with TK-10 renal, in the experiment on UACC-62 melanoma and in the experiment with NCI/ADR-RES ovarian was more than 100 µM each time. Moreover, the TGI in the experiment on SNB-75 CNS, in the experiment with HCC-2998 colon, in the experiment with SK-MEL-28 melanoma and with BT-549 breast was more than 100 µM in each case.

Turning to `CCOC(=O)N1C(=S)C(C(=O)OC)(C(=O)OC)N=C1C`, the TGI in the experiment with COLO 205 colon, with OVCAR-3 ovarian, in the experiment with OVCAR-5 ovarian, with TK-10 renal, with UACC-62 melanoma and in the experiment on NCI/ADR-RES ovarian was more than 100 µM each time. The TGI in the experiment on SNB-75 CNS, with HCC-2998 colon, in the experiment on SK-MEL-28 melanoma and in the experiment with BT-549 breast was more than 100 µM throughout.

For the compound `Cc1ccc(S(=O)(=O)N2CCN(CCO)CCN(S(=O)(=O)c3ccc(C)cc3)CCN(CCO)CC2)cc1`, the TGI is 33.2 µM in the experiment on COLO 205 colon; 44.5 µM in the experiment on OVCAR-3 ovarian; more than 100 µM with OVCAR-5 ovarian; more than 100 µM in the experiment on TK-10 renal; 37.7 µM with UACC-62 melanoma; 38.3 µM with NCI/ADR-RES ovarian. Besides, the TGI in the experiment on SNB-75 CNS was 92.4 µM; in the experiment on HCC-2998 colon, 29.7 µM; in the experiment on SK-MEL-28 melanoma it was 30.2 µM; in the experiment on BT-549 breast, more than 100 µM.

With `Cc1ccc([N+](=O)[O-])cc1NC(=O)C(=O)C1CCC2=C(Sc3ccccc3N2)C1=O` (stereo not given), the TGI in the experiment on COLO 205 colon was more than 100 µM; with OVCAR-3 ovarian, 90.8 µM; with OVCAR-5 ovarian it was more than 100 µM; in the experiment with TK-10 renal, more than 100 µM; in the experiment on UACC-62 melanoma, more than 100 µM; in the experiment on NCI/ADR-RES ovarian, more than 100 µM. Further, the TGI in the experiment with SNB-75 CNS, in the experiment on HCC-2998 colon, in the experiment on SK-MEL-28 melanoma and in the experiment on BT-549 breast was more than 100 µM each time.

For `Cc1cccc(C(O)c2cccnc2)c1O` (stereo not given), the TGI in the experiment with COLO 205 colon, with OVCAR-3 ovarian, with OVCAR-5 ovarian, with TK-10 renal, with UACC-62 melanoma and in the experiment with NCI/ADR-RES ovarian was more than 100 µM in each case. Also, the TGI with SNB-75 CNS, in the experiment on HCC-2998 colon, in the experiment on SK-MEL-28 melanoma and in the experiment on BT-549 breast was more than 100 µM throughout.
